In patent publication US12473289B2, “Heterocyclic compounds as delta-5 desaturase inhibitors and methods of use” (Amgen Inc., priority 2019, dated 2025):

target: Delta-5-Desaturase (D5D) (Homo sapiens (Human), UniProt O60427); test: In vitro measurement of Delta-5-Desaturase inhibitory activity using DGLA-CoA and Arachidonyl-CoA mass spectrometric assays; type: biochemical; settings: membrane preparations of D5D-overexpressing HEK293 6E cells; averaged over at least two independent runs
Procedure, shortened: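 DGLA-CoA and arachidonyl-CoA were read by RapidFire SPE triple-quad MS (negative mode, MRM) after a 1 h ambient-temperature reaction quenched with acetonitrile. Enzyme was D5D-overexpressing HEK293 6E membranes at 10 μg/mL final; substrate solution held 0.01 mM DGLA plus NADH, ATP and CoA. Inhibition was referenced to DMSO and no-enzyme wells; 4PL IC50.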

Delta-5-Desaturase (D5D), sequence (O60427 whole entry, species assumed): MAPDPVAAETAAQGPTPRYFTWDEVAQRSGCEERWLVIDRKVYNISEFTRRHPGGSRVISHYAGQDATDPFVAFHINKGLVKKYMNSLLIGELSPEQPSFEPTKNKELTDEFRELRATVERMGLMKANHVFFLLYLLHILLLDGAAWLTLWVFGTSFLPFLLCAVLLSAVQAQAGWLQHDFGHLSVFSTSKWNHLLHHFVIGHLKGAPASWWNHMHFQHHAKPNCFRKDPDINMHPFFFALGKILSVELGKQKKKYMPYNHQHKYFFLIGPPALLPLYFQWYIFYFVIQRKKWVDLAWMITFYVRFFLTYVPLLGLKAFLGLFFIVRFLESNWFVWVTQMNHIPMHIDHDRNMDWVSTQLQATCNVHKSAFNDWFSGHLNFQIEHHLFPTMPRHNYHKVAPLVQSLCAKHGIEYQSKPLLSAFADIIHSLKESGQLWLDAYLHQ

| IC50 | Structure (SMILES) |
| --- | --- |
| 179 nM | Cc1cn2c(=O)c(-c3cnn(CC(F)(F)C(F)(F)F)c3)c(C(F)(F)F)nc2c(C)n1 [Example 39-43, 7,9-dimethyl-3-[1-(2,2,3,3,3-pentafluoropropyl)-1H-pyrazol-4-yl]-2-(trifluoromethyl)-4H-pyrazino[1,2-a]pyrimidin-4-one] |
| > 67000 nM | O=c1c(-c2cnn(CC(F)(F)C(F)(F)F)c2)c(C(F)(F)F)nc2ccc(N3CCC3)cn12 [Example 39-28, 7-(azetidin-1-yl)-3-[1-(2,2,3,3,3-pentafluoropropyl)-1H-pyrazol-4-yl]-2-(trifluoromethyl)-4H-pyrido[1,2-a]pyrimidin-4-one] |
| 53.7 nM | COc1ccn2c(=O)c(-c3cnc(OCC(F)(F)C(F)(F)F)nc3)c(C(F)(F)F)nc2c1 [Example 39-12, 8-methoxy-3-[2-(2,2,3,3,3-pentafluoropropoxy)pyrimidin-5-yl]-2-(trifluoromethyl)-4H-pyrido[1,2-a]pyrimidin-4-one] |
| 162 nM | COCc1ccn2c(=O)c(-c3cnn(CC(F)(F)C(F)(F)F)c3)c(C(F)(F)F)nc2c1 [Example 36, 8-(Methoxymethyl)-3-[1-(2,2,3,3,3-pentafluoropropyl)-1H-pyrazol-4-yl]-2-(trifluoromethyl)-4H-pyrido[1,2-a]pyrimidin-4-one] |
| 421 nM | CC(C)c1ccn2c(=O)c(-c3ccc(OCC(F)(F)F)cc3)c(C(F)(F)F)nc2c1 [Example 1-32, 8-(2-propanyl)-3-(4-(2,2,2-trifluoroethoxy)phenyl)-2-(trifluoromethyl)-4H-pyrido[1,2-a]pyrimidin-4-one] |
| 25.2 nM | COc1ccn2c(=O)c(-c3cnn(-c4cccc(F)c4)c3)c(C(F)(F)F)nc2c1 [Example 1-18, 3-(1-(3-fluorophenyl)-1H-pyrazol-4-yl)-8-methoxy-2-(trifluoromethyl)-4H-pyrido[1,2-a]pyrmidin-4-one] |
| 111 nM | O=c1c(-c2ccc(OCC(F)(F)F)cc2)c(C(F)(F)F)nc2cc(C3CC3)ccn12 [Example 4-2, 8-cyclopropyl-3-(4-(2,2,2-trifluoroethoxy)phenyl)-2-(trifluoromethyl)-4H-pyrido[1,2-a]pyrimidin-4-one] |
| 79.1 nM | O=c1c(-c2ccc(OCC(F)(F)F)cc2)c(C(F)(F)F)nc2cc(OC(F)F)ccn12 [Example 1-66, 8-(difluoromethoxy)-3-(4-(2,2,2-trifluoroethoxy)phenyl)-2-(trifluoromethyl)-4H-pyrido[1,2-a]pyrimidin-4-one] |
| 5.4 nM | COc1ccn2c(=O)c(-c3ccc(OC(F)(F)F)cc3)c(C(F)(F)F)nc2c1 [Example 1-49, 8-methoxy-3-(4-(trifluoromethoxy)phenyl)-2-(trifluoromethyl)-4H-pyrido[1,2-a]pyrimidin-4-one] |
| 32.5 nM | Cn1c(=O)ccn2c(=O)c(-c3cnn(CC(F)(F)C(F)(F)F)c3)c(C(F)(F)F)nc12 [Example 67, 1-Methyl-7-[1-(2,2,3,3,3-pentafluoropropyl)-1H-pyrazol-4-yl]-8-(trifluoromethyl)-1H,2H,6H-[1,3]diazino[1,2-a]pyrimidine-2,6-dione] |
| 158 nM | COc1ccn2c(=O)c(-c3nnn(CC(F)(F)C(F)(F)F)c3I)c(C(F)(F)F)nc2c1 [Example 52, 3-[5-Iodo-1-(2,2,3,3,3-pentafluoropropyl)-1H-1,2,3-triazol-4-yl]-8-methoxy-2-(trifluoromethyl)-4H-pyrido[1,2-a]pyrimidin-4-one] |
| 48.6 nM | O=c1c(-c2ccc(OCC(F)(F)F)cc2)c(C(F)(F)F)nc2cc(OCF)ccn12 [Example 17-2, 8-(fluoromethoxy)-3-(4-(2,2,2-trifluoroethoxy)phenyl)-2-(trifluoromethyl)-4H-pyrido[1,2-a]pyrimidin-4-one] |
| 21.5 nM | [2H]C([2H])([2H])Oc1ccn2c(=O)c(-c3ccc(OCC(F)(F)F)nc3)c(C(F)(F)F)nc2c1 [Example 1-64, 8-(methyloxy-d3)-3-(6-(2,2,2-trifluoroethoxy)-3-pyridinyl)-2-(trifluoromethyl)-4H-pyrido[1,2-a]pyrimidin-4-one] |
| 20.4 nM | COc1cc2nc(C(F)(F)F)c(-c3cnn(CCC(F)(F)F)c3)c(=O)n2cc1F [Example 39-58, 7-fluoro-8-methoxy-2-(trifluoromethyl)-3-[1-(3,3,3-trifluoropropyl)-1H-pyrazol-4-yl]-4H-pyrido[1,2-a]pyrimidin-4-one] |
| 66.2 nM | COc1ccn2c(=O)c(-c3cn(CCC(F)(F)F)cn3)c(C(F)(F)F)nc2c1 [Example 25, 8-Methoxy-2-(trifluoromethyl)-3-(1-(3,3,3-trifluoropropyl)-1H-imidazol-4-yl)-4H-pyrido[1,2-a]pyrimidin-4-one] |
| 241 nM | Cc1cc2nc(C(F)(F)F)c(-c3ccc(OCC(F)(F)F)cc3)c(=O)n2cc1Cl [Example 41-3, 7-chloro-8-methyl-3-[4-(2,2,2-trifluoroethoxy)phenyl]-2-(trifluoromethyl)-4H-pyrido[1,2-a]pyrimidin-4-one] |

| IC50 | Structure (SMILES) |
| --- | --- |
| 26.6 nM | [2H]C([2H])([2H])Oc1ccn2c(=O)c(-c3ccc(OCCF)cc3)c(C(F)(F)F)nc2c1 [Example 1-51, 3-(4-(2-fluoroethoxy)phenyl)-8-(methyloxy-d3)-2-(trifluoromethyl)-4H-pyrido[1,2-a]pyrimidin-4-one] |
| 1350 nM | COc1cc(C)n2c(=O)c(-c3cnn(CC(F)(F)C(F)(F)F)c3)c(C(F)(F)F)nc2c1 [Example 39-8, 8-methoxy-6-methyl-3-[1-(2,2,3,3,3-pentafluoropropyl)-1H-pyrazol-4-yl]-2-(trifluoromethyl)-4H-pyrido[1,2-a]pyrimidin-4-one] |
| 518 nM | Cc1cnn2c(=O)c(-c3cnc(OCC(F)(F)F)nc3)c(C(F)(F)F)nc2c1 [Example 39-48, 8-methyl-3-[2-(2,2,2-trifluoroethoxy)pyrimidin-5-yl]-2-(trifluoromethyl)-4H-pyrimido[1,2-b]pyridazin-4-one] |
| 4050 nM | COc1ccn2c(=O)c(-c3cnc(OCC(F)(F)F)c(F)c3)c(C(F)(F)F)nc2c1 [Example 7-3, 3-(5-fluoro-6-(2,2,2-trifluoroethoxy)-3-pyridinyl)-8-methoxy-2-(trifluoromethyl)-4H-pyrido[1,2-a]pyrimidin-4-one] |
| 2.1 nM | O=c1c(-c2cnn(CC(F)(F)C(F)(F)F)c2)c(C(F)(F)F)nc2ccc(F)cn12 [Example 39-23, 7-fluoro-3-[1-(2,2,3,3,3-pentafluoropropyl)-1H-pyrazol-4-yl]-2-(trifluoromethyl)-4H-pyrido[1,2-a]pyrimidin-4-one] |
| 87.6 nM | COc1ccn2c(=O)c(-c3cnc(OCC(F)(F)F)nc3)c(C(F)(F)F)nc2c1 [Example 37, 8-Methoxy-3-[2-(2,2,2-trifluoroethoxy)pyrimidin-5-yl]-2-(trifluoromethyl)-4H-pyrido[1,2-a]pyrimidin-4-one] |
| 45.6 nM | O=c1c(-c2cnn(-c3ccccc3)c2)c(C(F)(F)F)nc2ccccn12 [Example 1-43, 3-(1-phenyl-1H-pyrazol-4-yl)-2-(trifluoromethyl)-4H-pyrido[1,2-a]pyrimidin-4-one] |
| 5190 nM | O=c1c(-c2cnn(C3CC3)c2)c(C(F)(F)F)nc2ccccn12 [Example 5-3, 3-(1-cyclopropyl-1H-pyrazol-4-yl)-2-(trifluoromethyl)-4H-pyrido[1,2-a]pyrimidin-4-one] |
| 369 nM | Cc1cnn2c(=O)c(-c3cnn(CC4CC4(F)F)c3)c(C(F)(F)F)nc2c1 (stereo not drawn) [Example 39-53, 3-{1-[(2,2-difluorocyclopropyl)methyl]-1H-pyrazol-4-yl}-8-methyl-2-(trifluoromethyl)-4H-pyrimido[1,2-b]pyridazin-4-one] |
| 712 nM | C[S+]([O-])c1ccn2c(=O)c(-c3cnn(CC(F)(F)C(F)(F)F)c3)c(C(F)(F)F)nc2c1 (stereo not drawn) [Example 15-4, 8-(methylsulfinyl)-3-(1-(2,2,3,3,3-pentafluoropropyl)-1H-pyrazol-4-yl)-2-(trifluoromethyl)-4H-pyrido[1,2-a]pyrimidin-4-one] |
| 1070 nM | O=c1c(-c2cnn(CCC(F)(F)F)c2)c(C(F)(F)F)nc2n1CCOC2 [Example 39-38, 2-(trifluoromethyl)-3-[1-(3,3,3-trifluoropropyl)-1H-pyrazol-4-yl]-4H,6H,7H,9H-pyrimido[2,1-c][1,4]oxazin-4-one] |
| 8.7 nM | COc1ccn2c(=O)c(-c3cc(CCC(F)(F)F)no3)c(C(F)(F)F)nc2c1 [Example 55, 8-Methoxy-2-(trifluoromethyl)-3-[3-(3,3,3-trifluoropropyl)-1,2-oxazol-5-yl]-4H-pyrido[1,2-a]pyrimidin-4-one] |
| 22.5 nM | COc1ccn2c(=O)c(-c3ccc(OCC(F)(F)F)cc3Cl)c(C(F)(F)F)nc2c1 [Example 8-3, 3-(2-chloro-4-(2,2,2-trifluoroethoxy)phenyl)-8-methoxy-2-(trifluoromethyl)-4H-pyrido[1,2-a]pyrimidin-4-one] |
| 115 nM | COc1ccc2nc(C(F)(F)F)c(-c3cnn(CC(F)(F)C(F)(F)F)c3)c(=O)n2c1 [Example 39-6, 7-methoxy-3-[1-(2,2,3,3,3-pentafluoropropyl)-1H-pyrazol-4-yl]-2-(trifluoromethyl)-4H-pyrido[1,2-a]pyrimidin-4-one] |
| 148 nM | N#Cc1ccn2c(=O)c(-c3cnn(CC(F)(F)C(F)(F)F)c3)c(C(F)F)nc2c1 [Example 1-85, 2-(difluoromethyl)-4-oxo-3-(1-(2,2,3,3,3-pentafluoropropyl)-1H-pyrazol-4-yl)-4H-pyrido[1,2-a]pyrimidine-8-carbonitrile] |

| Structure (SMILES) | IC50 |
| --- | --- |
| COc1ccn2c(=O)c(-c3ncc(CCC(F)(F)F)s3)c(C(F)(F)F)nc2c1 [Example 58, 8-Methoxy-2-(trifluoromethyl)-3-[5-(3,3,3-trifluoropropyl)-1,3-thiazol-2-yl]-4H-pyrido[1,2-a]pyrimidin-4-one] | 594 nM |
| COc1ccn2c(=O)c(-c3ccc(OCC(F)(F)C(F)F)cc3)c(C(F)(F)F)nc2c1 [Example 9-1, 8-Methoxy-3-(4-(2,2,3,3-tetrafluoropropoxy)phenyl)-2-(trifluoromethyl)-4H-pyrido[1,2-a]pyrimidin-4-one] | 11.1 nM |
